Assay results from article PMC4113814, “Bioactive Cembrane Derivatives from the Indian Ocean Soft Coral, Sinularia kavarattiensis” (Marine Drugs, 2014).
≈ marks a conversion by molar mass, not a printed value.

Assays:
[1] = MTT cytotoxicity assay on primary microglial cell cultures; assay type: cell-based, Wistar rats; details: Wistar, rat, mean of triplicate
Protocol: (§1) Primary microglial cell cultures were prepared from brains of newborn Wistar rats. Ethics approval for the experiments was granted by the EBIOTEC Review Board (Valter Lombardi, Iván Carrera and Lucía Fernández-Novoa; Project Identification Code: Sinularia Project October 2013; approved 30 October 2013). The neocortex of one-day-old postnatal rats was aseptically dissected out, and the meninges and blood vessels were carefully removed. Following cutting in a medium containing 20% horse serum, the suspension was filtered through a […] and transferred as a single cell suspension to culture dishes, using 5.0 mL of medium per dish. The cultures were incubated at 37 °C in an atmosphere containing 5% CO2. The culture medium consisted of Minimum Essential Medium Eagle, supplemented with L-glutamine, amino acids, vitamins, penicillin, gentamicin, sodium bicarbonate and 20% heat-inactivated horse serum. The medium was changed twice a week. After 1 week, the concentration of horse serum was reduced to 10%. After sixteen days in culture, cells were treated with 1 μg/mL of lipopolysaccharide (LPS). After six hours, different concentrations (1.0 μg/mL, 2.5 μg/mL and 5.0 μg/mL) of Compounds 1–4 and 6 were added to each well, and plates were incubated for 72 h at 37 °C in an atmosphere containing 5% CO2. Positive controls were treated only with LPS, while negative controls were treated with complete medium. After 72 h of incubation, cells were counted, and 2.5 mL of the supernatants were collected from each well and frozen at −40 °C for cytokine analyses. All experiments were carried out twice.
(§2) The cytotoxicity of the compounds was measured by the colorimetric methyl thiazol tetrazolium (MTT) assay and scored as a percentage of the absorbance reduction of treated cultures versus untreated control cultures. Primary microglial cell cultures were seeded into 96-well microplates at 10^4 cells per well and allowed to grow for 24 h. The initial concentration of Compounds 1–4 and 6 was 100 μg/mL in DMSO. The compounds were serially diluted in complete culture medium with two-fold dilutions (100, 50, 25, 12.5, 6.25, 3.12 and 1.56 μg/mL for in vitro cytotoxicity; 12.5, 6.25, 3.12, 1.56, 0.78 and 0.39 μg/mL for cytokine release). Different concentrations of the compounds were added to each well, and Tamoxifen was used as a positive control, with concentrations ranging from 50 to 1.56 μg/mL. Plates were incubated at 37 °C for 72 h under 5% CO2 atmosphere. Then, the 50 μL of MTT-PBS solution in culture medium were added to each well. The plates were further incubated for 4 h under the same conditions. The medium was then removed and replaced with 200 μL of DMSO to solubilize the MTT formazan product. The solutions were shaken for 20 min, and the absorbance was measured at 570 nm. […] Each value represents the mean of triplicate determinations. The IC50 values were calculated from the compound concentration-response curves.

[2] = test system: IL-4; experiment: IL-4 release in supernatants of LPS-treated primary microglial cells (ELISA); assay type: cell-based, Wistar rats; details: 72 h; for IL-4 release: LPS-treated; for IC50: Rattus norvegicus, inhibition of LPS-induced cytokine release, read-out: IL-4 IC50
Protocol: as §1, with “After six hours, different concentrations (1.0 μg/mL, 2.5 μg/mL and 5.0 μg/mL) of Compounds 1–4 and 6 were added to each well, and plates were incubated for 72 h at 37 °C in an atmosphere containing 5% CO2.” left out
(§3) The supernatants obtained from cell cultures were analyzed for TNF-α, IL-1β, IL-4, IL-6, IL-8, IL-10 and IL-18 using commercially available ELISA kits following the manufacturers’ instructions. All samples were assayed in duplicate, and equivocal results were repeated. The cytokine concentration was calculated from a standard curve of the corresponding recombinant cytokine.
as §2, with “[…] […]” for “The initial concentration of Compounds 1–4 and 6 was 100 μg/mL in DMSO. The compounds were serially diluted in complete culture medium with two-fold dilutions (100, 50, 25, 12.5, 6.25, 3.12 and 1.56 μg/mL for in vitro cytotoxicity; 12.5, 6.25, 3.12, 1.56, 0.78 and 0.39 μg/mL for cytokine release).”

[3] = test system: CHIKV replicon; experiment: CHIKV replicon assay, Cell-IQ live cell imaging, EGFP fluorescence intensity; details: 50 and 100 μM, 48 h
[4] = test system: IL-1β; experiment: IL-1β release in supernatants of LPS-treated primary microglial cells (ELISA); assay type: cell-based, Wistar rats; details: 72 h; for IL-1β release: LPS-treated; for IC50: Rattus norvegicus, inhibition of LPS-induced cytokine release, read-out: IL-1β IC50
Protocol: as §1, with “After six hours, different concentrations (1.0 μg/mL, 2.5 μg/mL and 5.0 μg/mL) of Compounds 1–4 and 6 were added to each well, and plates were incubated for 72 h at 37 °C in an atmosphere containing 5% CO2.” left out
as §3
as §2, with “The initial concentration of Compounds 1–4 and 6 was 100 μg/mL in DMSO.” left out

| Compound | IC50 at 72 h [1] [µg/mL] | IL-4 release ([2]; C1: 1.0 μg/mL) [pg/mL] | IL-4 release ([2]; C2: 2.5 μg/mL) [pg/mL] | IL-4 release ([2]; C3: 5.0 μg/mL) [pg/mL] | IC50 [2] [µg/mL] | decrease in EGFP marker fluorescence intensity [3] | IL-1β release ([4]; C1: 1.0 μg/mL) [pg/mL] | IL-1β release ([4]; C2: 2.5 μg/mL) [pg/mL] | IL-1β release ([4]; C3: 5.0 μg/mL) [pg/mL] | IC50 [4] [µg/mL] |
| --- | --- | --- | --- | --- | --- | --- | --- | --- | --- | --- |
| C=C(C)[C@@H]1C/C=C2\C(=O)O[C@@H](C[C@]3(C)CC(=O)[C@H](CC(=O)C1)O3)[C@@H]2O [Compound 1, 5-epi-sinuleptolide] | > 100 | 1.9 ± 0.9 | 2.1 ± 0.8 | 1.9 ± 0.4 | > 12.5 | strongest decrease | 1.04 ± 0.08 | 1.09 ± 0.1 | 1.08 ± 0.05 | > 12.5 |
| C=C(C)[C@@H]1C/C=C2\C(=O)O[C@@H](C[C@]3(C)CC(=O)[C@@H](CC(=O)C1)O3)[C@@H]2O [Compound 2, sinuleptolide] | > 100 | 2.1 ± 0.9 | 15.5 ± 2.3 | 18.4 ± 1.8 | 0.5 (≈ 1.44 µM) | strongest decrease | 1.08 ± 0.02 | 0.07 ± 0.04 | 0.08 ± 0.06 | 0.5 (≈ 1.44 µM) |
| C=C(C)C1CCC23OC2C(CC2(C)CC(=O)C(CC(=O)C1)O2)OC3=O (stereo not shown) [Compound 3, scabrolide D] | > 100 | 1.5 ± 0.9 | 1.6 ± 0.8 | 1.7 ± 0.5 | > 12.5 | inactive | 1.1 ± 0.05 | 1.3 ± 0.06 | 1.2 ± 0.05 | > 12.5 |
| C=C(C)[C@@H]1CC(=O)[C@H]2[C@H](C1)[C@@H]1C(=O)O[C@@H]3C[C@@]4(C)O[C@H]2C(=O)[C@@H]4[C@H]13 [Compound 6, ineleganolide] | > 100 | 1.8 ± 0.6 | 1.9 ± 0.6 | 1.9 ± 0.9 | > 12.5 | only moderate decreases | 1.07 ± 0.07 | 1.1 ± 0.05 | 1.09 ± 0.02 | > 12.5 |
